Measurements as given in US11207310B2 (PRILENIA NEUROTHERAPEUTICS LTD., priority 2016, dated 2021).
Like-named read-outs stand apart in the source and are kept apart here.

What was measured:
patients with HD [1] = system: patients with HD;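 for Change from baseline in mPPT Total Score: modified Physical Performance Test: standardized 9-item rating of physical functional tasks, scored on speed and accuracy, maximum 36, higher score means better performance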;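 for Δ to placebo: mPPT total score, change from baseline: modified Physical Performance Test: standardized 9-item rating of physical functional tasks, scored on speed and accuracy, maximum 36, higher score means better performance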
Description: There are six basic ADLs: eating, bathing, dressing, toileting, transferring (functional mobility) and continence. ADL is scored as follows: a patient requiring total care=0, a patient able to carry out gross tasks only=1, a patient having minimal impairment=2, a patient with no impairment (normal)=3.
The TFC scale of the UHDRS is a standardized scale used to assess 5 functional domains associated with disability shown below (occupation, finances, domestic chores (e.g. laundry, washing dishes), activities of daily living, and care level). The TFC score has a range of 0-13 and is a well-established endpoint for trials aiming disease progression. […] The TFC score is accepted by regulators and often considered the most widely accepted tool for disease procession in HD patients. Additionally, TFC is considered the gold standard for measuring HD rate of functional decline. […] The floor and ceiling effects make TFC scores more sensitive to change in early stage HD than in late stage HD.
Activities of Daily Living (ADL): 0=total care, 1=gross tasks only, 2=minimal impairment, 3=normal.

patients with HD [2] = system: patients with HD; remark: listed apart in the source;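 for Change from baseline in mPPT Total Score: modified Physical Performance Test: standardized 9-item rating of physical functional tasks, scored on speed and accuracy, maximum 36, higher score means better performance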;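 for Δ to placebo: mPPT total score, change from baseline: modified Physical Performance Test: standardized 9-item rating of physical functional tasks, scored on speed and accuracy, maximum 36, higher score means better performance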
Description: The mPPT quantifies the patient's performance in physical tasks (Brown 2000). It is a standardized 9-item test (standing static balance, chair rise, lift a book and put it on a shelf, put on and remove a jacket, pick up a penny from floor, turn 360 degrees, 50 feet walk, climb one flight of stairs, climb stairs test (flights up and down)), that measures the patient's performance on functional tasks. Both the speed and accuracy at which the patients complete the items are taken into account during scoring. The maximum score of the test is 36, with higher scores indicating better performance.
The secondary efficacy variable and endpoint, the Modified Physical Performance Test (mPPT), quantifies the patient's performance in physical tasks (Brown 2000). It is a standardized 9-item test that measures the patient's performance on functional tasks. Assistive devices are permitted for the tasks that require a standing position (items 6 to 9). Both the speed and accuracy at which the patients complete the items were taken into account during scoring. The maximum score of the test is 36, with higher scores indicating better performance.

Q: Which results are given for `CCCN1CCC(c2cccc(S(C)(=O)=O)c2)CC1` [pridopidine, 4-[3-(methylsulfonyl)phenyl]-1-propyl-piperidine]?
A: Change from baseline in UHDRS TFC ADL, Δ to Placebo (patients with HD [1]; 90 mg bid, Week 52, Stage 2 BL TFC 7-10): 0.16; Change from baseline in UHDRS TFC ADL, Δ to Placebo (patients with HD [1]; 112.5 mg bid, Week 26, ALL): 0.17; UHDRS TFC ADL, change from baseline, Δ to placebo (patients with HD [1]; 112.5 mg bid, Week 26, BL TFC<7, p value 0.8438): −0.04; UHDRS TFC ADL, change from baseline, Δ to placebo (patients with HD [1]; 112.5 mg bid, Week 26, BL TFC≥7, p value 0.0076): 0.27; Change from baseline in UHDRS TFC ADL, Δ to Placebo (patients with HD [1]; 112.5 mg bid, Week 26, Stage 1 BL TFC 11-13): 0.7; Change from baseline in UHDRS TFC ADL, Δ to Placebo (patients with HD [1]; 112.5 mg bid, Week 52, ALL): 0.03; UHDRS TFC ADL, change from baseline, Δ to placebo (patients with HD [1]; 112.5 mg bid, Week 52, BL TFC<7, p value 0.1393): −0.32; UHDRS TFC ADL, change from baseline, Wk 52 Δ to placebo (patients with HD [1]; 112.5 mg bid, Week 52, BL TFC≥7, p value 0.0493): 0.23; Change from baseline in UHDRS TFC ADL, Δ to Placebo (patients with HD [1]; 112.5 mg bid, Week 52, Stage 1 BL TFC 11-13): 0.46; Change from baseline in UHDRS TFC ADL, Δ to Placebo (patients with HD [1]; 112.5 mg bid, Week 52, Stage 2 BL TFC 7-10): 0.15; Δ to placebo: mPPT total score, change from baseline (patients with HD [2]; 45 mg bid, BL stage 3-5 (TFC 0-6), 26 weeks): 0.9; Δ to placebo: mPPT total score, change from baseline (patients with HD [2]; 45 mg bid, BL stage 3-5, 52 weeks): 1.57; Change from baseline in mPPT Total Score (patients with HD [2]; 45 mg bid, Full Analysis Set, after 52 weeks (FIG. 46a)): shows improvement on mPPT score; Δ to placebo: mPPT total score, change from baseline (patients with HD [2]; 45 mg bid, Full Analysis Set, week 26): 0.04; Δ to placebo: mPPT total score, change from baseline (patients with HD [2]; 45 mg bid, Full Analysis Set, week 52): 0.46; Δ to placebo: mPPT total score, change from baseline (patients with HD [2]; 45 mg bid, HD1 and HD2 patients, week 26): −0.24; Δ to placebo: mPPT total score, change from baseline (patients with HD [2]; 45 mg bid, HD1 and HD2 patients, week 52): 0.15; Δ to placebo: mPPT total score, change from baseline (patients with HD [2]; 45 mg bid, HD1 patients, 26 weeks): −1.31; Δ to placebo: mPPT total score, change from baseline (patients with HD [2]; 45 mg bid, HD1 patients, 52 weeks): 0.76; Δ to placebo: mPPT total score, change from baseline (patients with HD [2]; 45 mg bid, HD2 patients, 26 weeks): −0.07; Δ to placebo: mPPT total score, change from baseline (patients with HD [2]; 45 mg bid, HD2 patients, 52 weeks): −0.39; Δ to placebo: mPPT total score, change from baseline (patients with HD [2]; 45 mg bid, baseline TFC<7, week 26): 0.9; Δ to placebo: mPPT total score, change from baseline (patients with HD [2]; 45 mg bid, baseline TFC<7, week 52): 1.57; Δ to placebo: mPPT total score, change from baseline (patients with HD [2]; 67.5 mg bid, BL stage 3-5 (TFC 0-6), 26 weeks): −0.85; Δ to placebo: mPPT total score, change from baseline (patients with HD [2]; 67.5 mg bid, BL stage 3-5, 52 weeks): −1.37; Δ to placebo: mPPT total score, change from baseline (patients with HD [2]; 67.5 mg bid, Full Analysis Set, week 26): −0.07; Δ to placebo: mPPT total score, change from baseline (patients with HD [2]; 67.5 mg bid, Full Analysis Set, week 52): 0.17; Δ to placebo: mPPT total score, change from baseline (patients with HD [2]; 67.5 mg bid, HD1 and HD2 patients, week 26): 0.59; Δ to placebo: mPPT total score, change from baseline (patients with HD [2]; 67.5 mg bid, HD1 and HD2 patients, week 52): 1.04; Δ to placebo: mPPT total score, change from baseline (patients with HD [2]; 67.5 mg bid, HD1 patients, 26 weeks): −0.2; Δ to placebo: mPPT total score, change from baseline (patients with HD [2]; 67.5 mg bid, HD1 patients, 52 weeks): 0.45; Δ to placebo: mPPT total score, change from baseline (patients with HD [2]; 67.5 mg bid, HD2 patients, 26 weeks): 0.68; Δ to placebo: mPPT total score, change from baseline (patients with HD [2]; 67.5 mg bid, HD2 patients, 52 weeks): 1; Δ to placebo: mPPT total score, change from baseline (patients with HD [2]; 67.5 mg bid, baseline TFC<7, week 26): −0.85; Δ to placebo: mPPT total score, change from baseline (patients with HD [2]; 67.5 mg bid, baseline TFC<7, week 52): −1.37; Δ to placebo: mPPT total score, change from baseline (patients with HD [2]; 90 mg bid, BL stage 3-5 (TFC 0-6), 26 weeks): −0.73; Δ to placebo: mPPT total score, change from baseline (patients with HD [2]; 90 mg bid, BL stage 3-5, 52 weeks): −2.73; Δ to placebo: mPPT total score, change from baseline (patients with HD [2]; 90 mg bid, Full Analysis Set, week 26): −0.01; Δ to placebo: mPPT total score, change from baseline (patients with HD [2]; 90 mg bid, Full Analysis Set, week 52): −0.33; Δ to placebo: mPPT total score, change from baseline (patients with HD [2]; 90 mg bid, HD1 and HD2 patients, week 26): 0.46; Δ to placebo: mPPT total score, change from baseline (patients with HD [2]; 90 mg bid, HD1 and HD2 patients, week 52): 0.88; Δ to placebo: mPPT total score, change from baseline (patients with HD [2]; 90 mg bid, HD1 patients, 26 weeks): 0.81; Δ to placebo: mPPT total score, change from baseline (patients with HD [2]; 90 mg bid, HD1 patients, 52 weeks): 1.11; Δ to placebo: mPPT total score, change from baseline (patients with HD [2]; 90 mg bid, HD2 patients, 26 weeks): 0.35; Δ to placebo: mPPT total score, change from baseline (patients with HD [2]; 90 mg bid, HD2 patients, 52 weeks): 0.71; Δ to placebo: mPPT total score, change from baseline (patients with HD [2]; 90 mg bid, baseline TFC<7, week 26): −0.73; Δ to placebo: mPPT total score, change from baseline (patients with HD [2]; 90 mg bid, baseline TFC<7, week 52): −2.73; Δ to placebo: mPPT total score, change from baseline (patients with HD [2]; 112.5 mg bid, BL stage 3-5 (TFC 0-6), 26 weeks): −0.33; Δ to placebo: mPPT total score, change from baseline (patients with HD [2]; 112.5 mg bid, BL stage 3-5, 52 weeks): −0.49; Δ to placebo: mPPT total score, change from baseline (patients with HD [2]; 112.5 mg bid, Full Analysis Set, week 26): 0.29; Δ to placebo: mPPT total score, change from baseline (patients with HD [2]; 112.5 mg bid, Full Analysis Set, week 52): −0.47; Δ to placebo: mPPT total score, change from baseline (patients with HD [2]; 112.5 mg bid, HD1 and HD2 patients, week 26): 0.79; Δ to placebo: mPPT total score, change from baseline (patients with HD [2]; 112.5 mg bid, HD1 and HD2 patients, week 52): −0.26; Δ to placebo: mPPT total score, change from baseline (patients with HD [2]; 112.5 mg bid, HD1 patients, 26 weeks): 0.03; Δ to placebo: mPPT total score, change from baseline (patients with HD [2]; 112.5 mg bid, HD1 patients, 52 weeks): 0.08; Δ to placebo: mPPT total score, change from baseline (patients with HD [2]; 112.5 mg bid, HD2 patients, 26 weeks): 0.85; Δ to placebo: mPPT total score, change from baseline (patients with HD [2]; 112.5 mg bid, HD2 patients, 52 weeks): −0.65; Δ to placebo: mPPT total score, change from baseline (patients with HD [2]; 112.5 mg bid, baseline TFC<7, week 26): −0.33; Δ to placebo: mPPT total score, change from baseline (patients with HD [2]; 112.5 mg bid, baseline TFC<7, week 52): −0.49
